Numbers after ± are expanded uncertainties.
Conditions: for vapor or sublimation pressure: Transpiration method; for mass density: 101.33 kPa, Liquid, Vibrating tube method

Row | Structure (SMILES) | vapor or sublimation pressure (419.15 K, Crystal) | vapor or sublimation pressure (421.15 K, Crystal) | vapor or sublimation pressure (423.15 K, Crystal) | vapor or sublimation pressure (425.15 K, Crystal) | vapor or sublimation pressure (427.15 K, Crystal) | vapor or sublimation pressure (429.15 K, Crystal) | vapor or sublimation pressure (431.15 K, Crystal) | vapor or sublimation pressure (433.15 K, Crystal) | vapor or sublimation pressure (435.15 K, Crystal) | vapor or sublimation pressure (437.15 K, Crystal) | vapor or sublimation pressure (439.15 K, Crystal) | vapor or sublimation pressure (441.15 K, Crystal) | vapor or sublimation pressure (443.15 K, Crystal) | Normal melting temperature (Crystal, DTA) | mass density (293.15 K) | mass density (298.15 K) | mass density (303.15 K) | mass density (308.15 K) | mass density (313.15 K)
1 | Cc1c(Cl)cccc1Nc1ncccc1C(=O)O [2-(2-methyl-3-chloroanilino)nicotinic acid] | 0.000753 ± 0.00012 kPa | 0.000867 ± 0.00013 kPa | 0.000966 ± 0.00013 kPa | 0.001118 ± 0.00013 kPa | 0.001294 ± 0.00013 kPa | 0.001475 ± 0.00013 kPa | 0.001694 ± 0.00014 kPa | 0.001933 ± 0.00014 kPa | 0.002207 ± 0.00015 kPa | 0.002483 ± 0.00016 kPa | 0.002882 ± 0.00017 kPa | 0.003179 ± 0.00018 kPa | 0.003735 ± 0.0002 kPa | 232.60 ± 0.5 °C | – | – | – | – | –
2 | CCCCCCCCO [octan-1-ol] | – | – | – | – | – | – | – | – | – | – | – | – | – | – | 825.1 ± 4 kg/m3 | 821.7 ± 4 kg/m3 | 818.3 ± 4 kg/m3 | 814.8 ± 4 kg/m3 | 811.4 ± 4 kg/m3
3 | CCCCCC [hexane] | – | – | – | – | – | – | – | – | – | – | – | – | – | – | 659.4 ± 4.1 kg/m3 | 654.8 ± 4.1 kg/m3 | 650.2 ± 4.1 kg/m3 | 645.4 ± 4.1 kg/m3 | 640.7 ± 4.1 kg/m3
